According to patent US20240166665A1, “COVALENT EGFR INHIBITORS AND METHODS OF USE THEREOF” (Dana-Farber Cancer Institute, Inc., priority 2021, published 2024):

Legend:
[1] = test system: NSCLC that have developed resistance to gefitinib or erlotinib; conditions: patients with NSCLC resistant to gefitinib or erlotinib; cited from earlier work
[2] = target: EGFR L858R/T790M/C797S protein (Homo sapiens (Human), UniProt P00533, C797S/L858R/T790M); test: MS intact labeling assay; format: binding; conditions: 10-fold molar excess of compound, 2 h at 30° C., LC-MS
EGFR L858R/T790M/C797S protein, sequence (P00533 25-1210 T790M/C797S/L858R): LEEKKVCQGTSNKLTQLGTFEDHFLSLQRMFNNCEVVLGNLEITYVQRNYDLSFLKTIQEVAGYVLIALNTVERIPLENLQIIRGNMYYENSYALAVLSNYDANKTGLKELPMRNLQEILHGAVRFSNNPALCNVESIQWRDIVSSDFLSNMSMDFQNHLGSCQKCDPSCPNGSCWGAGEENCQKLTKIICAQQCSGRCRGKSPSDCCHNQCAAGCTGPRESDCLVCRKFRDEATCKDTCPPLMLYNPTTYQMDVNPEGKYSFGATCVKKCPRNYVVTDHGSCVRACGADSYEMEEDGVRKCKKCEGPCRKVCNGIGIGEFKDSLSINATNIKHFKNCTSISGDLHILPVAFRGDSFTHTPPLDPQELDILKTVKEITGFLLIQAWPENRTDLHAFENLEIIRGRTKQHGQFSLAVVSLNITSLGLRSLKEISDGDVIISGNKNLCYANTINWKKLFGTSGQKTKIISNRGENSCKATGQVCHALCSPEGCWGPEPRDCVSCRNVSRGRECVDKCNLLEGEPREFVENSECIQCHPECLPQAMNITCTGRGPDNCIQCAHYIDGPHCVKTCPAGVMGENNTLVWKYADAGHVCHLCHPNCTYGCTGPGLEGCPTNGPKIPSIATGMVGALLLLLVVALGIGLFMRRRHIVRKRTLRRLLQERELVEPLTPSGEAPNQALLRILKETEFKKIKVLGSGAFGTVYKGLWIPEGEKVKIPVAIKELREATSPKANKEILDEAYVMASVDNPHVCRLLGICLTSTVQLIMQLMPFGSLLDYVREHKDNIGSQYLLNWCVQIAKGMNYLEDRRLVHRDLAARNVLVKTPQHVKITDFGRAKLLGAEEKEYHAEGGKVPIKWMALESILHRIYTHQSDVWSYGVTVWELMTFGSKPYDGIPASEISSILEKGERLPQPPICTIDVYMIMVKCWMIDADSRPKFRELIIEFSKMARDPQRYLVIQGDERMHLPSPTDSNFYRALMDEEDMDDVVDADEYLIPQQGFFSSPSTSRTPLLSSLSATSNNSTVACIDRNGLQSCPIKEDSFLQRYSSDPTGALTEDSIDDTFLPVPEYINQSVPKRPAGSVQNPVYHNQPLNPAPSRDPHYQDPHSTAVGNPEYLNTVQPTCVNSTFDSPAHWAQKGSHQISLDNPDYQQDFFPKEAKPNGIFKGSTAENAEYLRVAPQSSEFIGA
Experimental: (§1) EGFR L858R/T790M protein (10 μg) or EGFR L858R/T790M/C797S protein was treated with DMSO or a 10-fold molar excess of compound 001 for 2 h at 30° C. and analyzed by LC-MS using an HPLC (Shimadzu, Marlborough, MA) interfaced to an LTQ ion trap mass spectrometer (ThermoFisher Scientific, San Jose, CA). Protein (5 μg) was injected onto a reversed phase column (5 cm POROS 50R2, Applied Biosystems, Foster City, CA), desalted for 4 min (100% A), and gradient eluted (0-100% B in 1 min; A=0.2 M acetic acid in water; B=0.2 M acetic acid in acetonitrile) into the mass spectrometer (spray voltage=4.8 kV). The mass spectrometer was programmed to acquire profile mass spectra (m/z 300-2000). Raw data was deconvoluted using MagTran version 1.03b2.38.

EGFR L858R/T790M [3] = target: T1, EGFR L858R/T790M (Homo sapiens (Human), UniProt P00533, L858R/T790M); test: MS intact labeling assay; format: binding; conditions: 10-fold molar excess of compound, 2 h at 30° C., LC-MS
T1 sequence (P00533 25-1210 T790M/L858R): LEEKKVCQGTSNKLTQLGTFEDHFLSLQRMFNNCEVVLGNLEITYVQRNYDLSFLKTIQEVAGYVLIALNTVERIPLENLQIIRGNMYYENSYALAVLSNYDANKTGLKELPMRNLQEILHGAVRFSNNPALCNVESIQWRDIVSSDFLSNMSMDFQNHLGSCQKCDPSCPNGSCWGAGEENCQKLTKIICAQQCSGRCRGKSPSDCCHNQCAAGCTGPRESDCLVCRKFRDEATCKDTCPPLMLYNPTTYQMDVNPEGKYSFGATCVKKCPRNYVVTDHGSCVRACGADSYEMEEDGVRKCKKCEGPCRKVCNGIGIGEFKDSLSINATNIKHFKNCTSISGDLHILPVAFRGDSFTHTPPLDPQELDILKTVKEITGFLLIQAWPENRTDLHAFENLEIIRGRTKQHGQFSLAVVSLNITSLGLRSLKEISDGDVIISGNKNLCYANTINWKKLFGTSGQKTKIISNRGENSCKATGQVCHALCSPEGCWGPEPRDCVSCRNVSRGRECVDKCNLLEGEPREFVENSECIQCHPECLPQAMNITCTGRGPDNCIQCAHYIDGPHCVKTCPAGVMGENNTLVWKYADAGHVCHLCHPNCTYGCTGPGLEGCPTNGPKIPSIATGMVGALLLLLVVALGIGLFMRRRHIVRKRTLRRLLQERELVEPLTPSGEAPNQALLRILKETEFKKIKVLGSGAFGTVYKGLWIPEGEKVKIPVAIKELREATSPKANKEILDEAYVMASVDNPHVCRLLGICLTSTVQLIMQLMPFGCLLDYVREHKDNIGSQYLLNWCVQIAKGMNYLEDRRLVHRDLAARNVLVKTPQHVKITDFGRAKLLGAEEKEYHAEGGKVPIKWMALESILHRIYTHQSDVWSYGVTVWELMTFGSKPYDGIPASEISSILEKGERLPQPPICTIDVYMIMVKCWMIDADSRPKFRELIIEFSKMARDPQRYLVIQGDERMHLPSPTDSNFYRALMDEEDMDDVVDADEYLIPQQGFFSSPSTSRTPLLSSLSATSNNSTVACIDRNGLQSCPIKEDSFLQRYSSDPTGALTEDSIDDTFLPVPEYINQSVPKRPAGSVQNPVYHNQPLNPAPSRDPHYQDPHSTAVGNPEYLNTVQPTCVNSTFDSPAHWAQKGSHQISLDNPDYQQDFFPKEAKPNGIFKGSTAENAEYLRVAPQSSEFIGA
Experimental: as §1

EGFR L858R = EGFR L858R (Homo sapiens (Human), UniProt P00533, L858R); test: HTRF-based EGFR biochemical assay; conditions: 100 μM ATP, 30 min preincubation, enzyme 0.1 nM
EGFR L858R, sequence (P00533 25-1210 L858R): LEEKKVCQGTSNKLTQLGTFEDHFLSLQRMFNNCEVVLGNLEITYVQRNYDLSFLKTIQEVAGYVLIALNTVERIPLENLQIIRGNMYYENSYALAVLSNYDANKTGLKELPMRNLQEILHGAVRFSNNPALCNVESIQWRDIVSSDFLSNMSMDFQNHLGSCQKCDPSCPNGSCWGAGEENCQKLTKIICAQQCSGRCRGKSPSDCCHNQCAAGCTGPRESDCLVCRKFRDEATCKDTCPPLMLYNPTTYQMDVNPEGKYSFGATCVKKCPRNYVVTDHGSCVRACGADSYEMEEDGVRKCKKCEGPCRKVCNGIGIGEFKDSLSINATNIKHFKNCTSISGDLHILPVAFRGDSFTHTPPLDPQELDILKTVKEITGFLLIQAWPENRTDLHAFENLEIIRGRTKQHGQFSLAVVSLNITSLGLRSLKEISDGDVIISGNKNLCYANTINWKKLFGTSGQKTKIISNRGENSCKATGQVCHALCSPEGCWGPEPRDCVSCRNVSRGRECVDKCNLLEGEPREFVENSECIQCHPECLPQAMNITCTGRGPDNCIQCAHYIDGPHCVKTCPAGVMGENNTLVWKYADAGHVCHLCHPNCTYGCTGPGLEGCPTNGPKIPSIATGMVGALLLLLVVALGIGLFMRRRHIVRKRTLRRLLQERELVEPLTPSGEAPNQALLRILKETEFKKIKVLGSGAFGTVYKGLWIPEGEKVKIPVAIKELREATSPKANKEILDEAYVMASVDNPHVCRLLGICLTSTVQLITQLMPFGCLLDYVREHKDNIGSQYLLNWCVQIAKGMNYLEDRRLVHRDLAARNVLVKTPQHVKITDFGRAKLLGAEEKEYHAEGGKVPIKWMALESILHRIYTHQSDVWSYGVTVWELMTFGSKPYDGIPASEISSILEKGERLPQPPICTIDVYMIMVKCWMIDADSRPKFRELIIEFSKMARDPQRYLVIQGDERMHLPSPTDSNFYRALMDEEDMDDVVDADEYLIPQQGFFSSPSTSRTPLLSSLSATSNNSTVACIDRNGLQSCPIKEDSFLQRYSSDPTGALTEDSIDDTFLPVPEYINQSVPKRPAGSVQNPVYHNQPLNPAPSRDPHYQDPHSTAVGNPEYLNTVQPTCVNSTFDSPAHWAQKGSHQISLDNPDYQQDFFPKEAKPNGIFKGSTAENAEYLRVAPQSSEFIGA
Experimental: (§2) EGFR biochemical activity measurements were carried out using the homogeneous time-resolved fluorescence (HTRF) assay (Cisbio). Inhibitors and DMSO normalizations were first dispensed to empty black low-volume 384-well plates (Corning) with D300 digital liquid dispenser (HP). All reactions were carried out at room temperature and solutions were added to plates with a Multidrop Combi Reagent Dispenser (ThermoFisher). The reaction mixture (10 μL final volume) contained 1 μM tyrosine kinase peptide-biotin substrate and mutant EGFR in a reaction buffer (50 mM HEPES pH 7.0, 5 mM MgCl2, 1 mM MnCl2, 0.01% BSA, 2 mM TCEP, 0.1 mM NaVO4). Enzyme concentrations were adjusted to accommodate varying kinase activities (L858R^0.1 nM, L858R/T790M 0.02 nM). Enzyme reaction solution (2× concentrations, 5 μL) was added to 384-well plates containing compounds and incubated for 30 mins. Enzyme reactions were initiated with the addition of 5 μL of ATP to a final concentration of 100 μM and reacted for 20 mins. Reactions were quenched with the addition of 10 μL of phospho-tyrosine antibody-Europium(III) cryptate (1-to-180 volume ratio) and Streptavidin-XL665 (46.7 nM) in EDTA-containing detection buffer, then incubated at room temperature for 1 hour, and read with a PHERAstar plate reader (excitation=337 nm, emission=620 nm and 665 nm). IC50 values were determined by inhibition curves (11-point curves from 1.0 μM to 0.130 nM or 23-point curves from 1.0 μM to […]) in triplicate with non-linear least squares fit in GraphPad Prism 7.0d.

EGFR L858R/T790M [4] = target: T1, EGFR L858R/T790M; test: HTRF-based EGFR biochemical assay; conditions: 100 μM ATP, 30 min preincubation, enzyme 0.02 nM
Experimental: as §2

BaF3 EGFR L858R = test: Ba/F3 cell proliferation (Cell Titer Glo); format: cell-based, murine; conditions: Mus musculus, 72 hours exposure
Excerpt: (§3) The EGFR mutant L858R Ba/F3 cells have been previously described (Zhou, W., et al. Nature 462, 2009, 1070-1074). The EGFR C797S and C775S mutations were introduced via site directed mutagenesis using the Quick Change Site-Directed Mutagenesis kit into a vector containing EGFR L858R mutation (Stratagene; La Jolla, CA) according to the manufacturers instructions. All constructs were confirmed by DNA sequencing. The constructs were then shuttled into the retroviral vector JP1540 by either using the Cre-recombination system (Agilent Technologies, Santa Clara, CA) or the In-fusion HD Cloning kit (TakaR^a Bio USA, Inc.; Mountain view, CA). Ba/F3 cells were then infected with retrovirus per standard protocols, as described previously (Zhou, et al, Nature 2009). Stable clones were obtained by selection in puromycin (2 μg/ml). All BaF/3 mutant cells were maintained in RPMI 1640 (Cellgro; Mediatech Inc., Herndon, CA) supplemented with 10% FBS, 100 units/mL penicillin, 100 units/mL streptomycin.
(§4) Growth and inhibition of growth was assessed by the Cell Titer Glo assay (Promega, Madison, WI) and was performed according to the manufacturer's instructions. The Cell Titer Glo assay is a luminescence-based method used to determine the number of viable cells based on quantitation of the ATP present, which is directly proportional to the amount of metabolically active cells present. Ba/F3 cells of different EGFR genotypes were exposed to compounds for 72 hours and the number of cells used per experiment was determined empirically as has been previously established (Zhou, et al., Nature 2009). All experimental points were set up in triplicates in 384-well plates. […] The curves were fitted using a non-linear regression model with a sigmoidal dose response.

BaF3 EGFR L858R/C797S = test: Ba/F3 cell proliferation (Cell Titer Glo); format: cell-based, murine; conditions: Mus musculus, 72 hours exposure
Excerpt: as §3, §4

Compound | RR (response rate) [1] | Percent Labeling [2] | Percent Labeling (EGFR L858R/T790M [3]) | IC50 (EGFR L858R) | IC50 (EGFR L858R/T790M [4]) | IC50 (BaF3 EGFR L858R) | IC50 (BaF3 EGFR L858R/C797S)
CN(C)C/C=C/C(=O)Nc1cc2c(Nc3ccc(F)c(Cl)c3)ncnc2cc1O[C@H]1CCOC1 [afatinib] | less than 10% |  |  |  |  |  | 
C=CC(=O)Nc1cc2cc(c1)-c1cnn(C)c1OCCC[C@@H](C)Cn1c(nc3ccc(Br)cc31)NC2=O [Compound 001] |  | 80% | 80% | > 0.1 µM | > 0.1 µM | 2.9 µM | 1.46 µM
C=CC(=O)Nc1cc2sc1-c1cnccc1OCCC[C@@H](C)Cn1c(nc3ccc(Br)cc31)NC2=O [Compound 003] |  |  |  |  |  | 4.43 µM | 4.03 µM
C=CC(=O)Nc1cc2sc1-c1cnn(C)c1OCCC[C@@H](C)Cn1c(nc3ccc(Br)cc31)NC2=O [Compound 002] |  |  |  | > 0.1 µM | > 0.1 µM | 4.42 µM | 3.58 µM
